Results on six molecules are retold here after US8846669B2, “Oxazolidinone derivative and medical composition containing same” (Legochem Biosciences, Inc., priority 2011, dated 2014).

What all share (assay): In vitro antibacterial activity, broth microdilution MIC90
Holding throughout (format): cell-based

In one test the test system is Moraxella catarrhalis. As for the experimental part: (§1) MIC90 was measured by broth microdilution method based on CLSI standards [reference: Clinical and Laboratory Standards Institute Document. (2000) Methods for Dilution Antimicrobial Susceptibility Test for Bacteria that Grow Aerobically-Fifth Edition: M7-A5. CLSI, Villanova, Pa.].
(§2) Activities of 12 strains including Staphylococcus aureus, Methicillin Resistant Staphylococcus aureus, Staphylococcus epidermidis, Methicillin Resistant Staphylococcus epidermidis, Enterococcus faecalis, Vancomycin Resistant Enterococcus faecalis, Linezolid and Vancomycin Resistant Enterococcus faecalis, Enterococcus faecium, Vancomycin Resistant Enterococcus faecium, Linezolid and Vancomycin Resistant Enterococcus faecium, and Moraxella catarrhalis, were measured, and results are shown in Table 1 below.
(§3) The final concentration of test material in the antibacterial test was from 0.063 μg/mL (minimum) to 128 μg/mL (maximum), and the final concentration of DMSO used as an excipient was 2.5% (V/V). Linezolid represented by Formula B below (manufactured by Pfizer) was used as a control and bacterial activity thereof was compared with those of the test materials.

Test [1] concerns Linezolid and Vancomycin Resistant Enterococcus faecium (strain 11). On the procedure:
as §1, §2, §3

Test [2] concerns Linezolid and Vancomycin Resistant Enterococcus faecalis. On the procedure: as §1, §2, §3
Test [3] deals with Vancomycin Resistant Enterococcus faecium. On the procedure: as §1, §2, §3
Test [4] concerns Vancomycin Resistant Enterococcus faecalis. As for the experimental part:
as §1, §2, §3

Test [5] deals with Staphylococcus epidermidis. On the procedure: as §1, §2, §3
For a further test, the system named is Enterococcus faecium. On the procedure:
as §1, §2, §3

Test [6] has as its system Methicillin Resistant Staphylococcus epidermidis. On the procedure:
as §1, §2, §3

The subject of test [7] is Linezolid and Vancomycin Resistant Enterococcus faecium (strain 10). As for the experimental part:
as §1, §2, §3

The next test deals with Enterococcus faecalis. As for the experimental part:
as §1, §2, §3

In test [8] the test system is Methicillin Resistant Staphylococcus aureus. On the procedure:
as §1, §2, §3

Another test deals with Staphylococcus aureus. On the procedure: as §1, §2, §3
Setting [9] is: Moraxella catarrhalis, strain 12, M. catarrhalis, read-out: MIC90.
Setting [10] is: Enterococcus faecium, strain 11, E. faecium VanA LR, read-out: MIC90.
Setting [11] is: Enterococcus faecalis, strain 7, E. faecalis VanA LR, read-out: MIC90.
Setting [12] is: Enterococcus faecium, strain 9, E. faecium VanA, read-out: MIC90.
[13] abbreviates: Enterococcus faecalis, strain 6, E. faecalis VanA, read-out: MIC90.
The mark [14] stands for this setting: Staphylococcus epidermidis, strain 3, S. epidermidis, read-out: MIC90.
Where [15] appears, read: Enterococcus faecium, strain 8, E. faecium, read-out: MIC90.
Setting [16] is: Staphylococcus epidermidis, strain 4, S. epidermidis MR, read-out: MIC90.
The mark [17] stands for this setting: Enterococcus faecium, strain 10, E. faecium VanA LR, read-out: MIC90.
Where [18] appears, read: Enterococcus faecalis, strain 5, E. faecalis, read-out: MIC90.
Where [19] appears, read: Staphylococcus aureus, strain 2, S. aureus MR, read-out: MIC90.
Setting [20] is: Staphylococcus aureus, strain 1, S. aureus, read-out: MIC90.

Converted amounts (≈) assume the structure as drawn. Like-named read-outs stand apart in the source and are kept apart here.

For `O=C1O[C@@H](Cn2ccnn2)CN1c1ccc(-c2ccc(N3C=NOCC3)nc2)c(F)c1` [Compound 60], the MIC90 worked out at 1 µg/mL (≈ 2.36 µM) with Moraxella catarrhalis (setting [9]); 2 µg/mL (≈ 4.72 µM) in [1] (setting [10]); 1 µg/mL (≈ 2.36 µM) in test [2] (setting [11]); 0.125 µg/mL (≈ 0.295 µM) in [3] (setting [12]); 0.25 µg/mL (≈ 0.59 µM) in test [4] (setting [13]); 0.25 µg/mL (≈ 0.59 µM) in test [5] (setting [14]). The MIC90 with Enterococcus faecium (setting [15]) amounted to 0.125 µg/mL (≈ 0.295 µM); in [6] (setting [16]), 0.25 µg/mL (≈ 0.59 µM); in [7] (setting [17]), 1 µg/mL (≈ 2.36 µM); in the test on Enterococcus faecalis (setting [18]), 0.25 µg/mL (≈ 0.59 µM); in test [8] (setting [19]), 0.25 µg/mL (≈ 0.59 µM); with Staphylococcus aureus (setting [20]), 0.125 µg/mL (≈ 0.295 µM).

As to `COC(=O)NC[C@H]1CN(c2ccc(-c3ccc(N4C=NN(C(=O)CO)CC4)nc3)c(F)c2)C(=O)O1` [Compound 25], the MIC90 came to 4 µg/mL (≈ 8.22 µM) against Moraxella catarrhalis (Moraxella catarrhalis); 2 µg/mL (≈ 4.11 µM) in [1] (Enterococcus faecium); 4 µg/mL (≈ 8.22 µM) in [2] (Enterococcus faecalis); 0.5 µg/mL (≈ 1.03 µM) in [3] (Enterococcus faecium); 0.5 µg/mL (≈ 1.03 µM) in test [4] (Enterococcus faecalis); 0.25 µg/mL (≈ 0.514 µM) in test [5] (Staphylococcus epidermidis). In addition, the MIC90 against Enterococcus faecium (Enterococcus faecium) worked out at 0.25 µg/mL (≈ 0.514 µM); in test [6] (Staphylococcus epidermidis), 1 µg/mL (≈ 2.06 µM); in [7] (Enterococcus faecium) it was 4 µg/mL (≈ 8.22 µM); in the test on Enterococcus faecalis (Enterococcus faecalis), 0.5 µg/mL (≈ 1.03 µM); in test [8] (Staphylococcus aureus), 0.5 µg/mL (≈ 1.03 µM); with Staphylococcus aureus (Staphylococcus aureus), 0.063 µg/mL (≈ 0.13 µM).

In the case of `CNC(=O)N1CCN(c2ccc(-c3ccc(N4C[C@H](Cn5ccnn5)OC4=O)cc3F)cn2)C=N1` [Compound 34], the MIC90 worked out at 2 µg/mL (≈ 4.17 µM) against Moraxella catarrhalis (Moraxella catarrhalis); 4 µg/mL (≈ 8.34 µM) in test [1] (Enterococcus faecium); 2 µg/mL (≈ 4.17 µM) in test [2] (Enterococcus faecalis); 0.5 µg/mL (≈ 1.04 µM) in [3] (Enterococcus faecium); 0.5 µg/mL (≈ 1.04 µM) in test [4] (Enterococcus faecalis); 0.5 µg/mL (≈ 1.04 µM) in test [5] (Staphylococcus epidermidis). Further, the MIC90 came out at 0.25 µg/mL (≈ 0.521 µM) in the test with Enterococcus faecium (Enterococcus faecium); 1 µg/mL (≈ 2.09 µM) in test [6] (Staphylococcus epidermidis); 2 µg/mL (≈ 4.17 µM) in test [7] (Enterococcus faecium); 0.5 µg/mL (≈ 1.04 µM) in the test with Enterococcus faecalis (Enterococcus faecalis); 0.5 µg/mL (≈ 1.04 µM) in test [8] (Staphylococcus aureus); 0.25 µg/mL (≈ 0.521 µM) with Staphylococcus aureus (Staphylococcus aureus).

Regarding `CC(=O)NC[C@H]1CN(c2ccc(-c3ccc(N4C=NN(C=O)CC4)nc3)c(F)c2)C(=O)O1` [Compound 1], the MIC90 with Moraxella catarrhalis (setting [9]) stood at 2 µg/mL (≈ 4.54 µM); in [1] (setting [10]), 2 µg/mL (≈ 4.54 µM); in test [2] (setting [11]) it was 2 µg/mL (≈ 4.54 µM); in test [3] (setting [12]) it was 0.5 µg/mL (≈ 1.14 µM); in [4] (setting [13]), 0.5 µg/mL (≈ 1.14 µM); in test [5] (setting [14]), 0.25 µg/mL (≈ 0.568 µM). For the same molecule, the MIC90 in the test on Enterococcus faecium (setting [15]) was determined as 0.5 µg/mL (≈ 1.14 µM); in [6] (setting [16]) it was 1 µg/mL (≈ 2.27 µM); in [7] (setting [17]), 2 µg/mL (≈ 4.54 µM); with Enterococcus faecalis (setting [18]), 0.5 µg/mL (≈ 1.14 µM); in test [8] (setting [19]), 1 µg/mL (≈ 2.27 µM); with Staphylococcus aureus (setting [20]) it was 0.5 µg/mL (≈ 1.14 µM).

Regarding `NC(=O)N1CCN(c2ccc(-c3ccc(N4C[C@H](Cn5ccnn5)OC4=O)cc3F)cn2)C=N1` [Compound 33], the MIC90 against Moraxella catarrhalis (Moraxella catarrhalis) was found to be 2 µg/mL (≈ 4.3 µM); in [1] (Enterococcus faecium), 2 µg/mL (≈ 4.3 µM); in [2] (Enterococcus faecalis) it was 2 µg/mL (≈ 4.3 µM); in [3] (Enterococcus faecium), 0.25 µg/mL (≈ 0.537 µM); in [4] (Enterococcus faecalis), 0.25 µg/mL (≈ 0.537 µM); in test [5] (Staphylococcus epidermidis), 0.25 µg/mL (≈ 0.537 µM). Further, the MIC90 against Enterococcus faecium (Enterococcus faecium) is 0.125 µg/mL (≈ 0.269 µM); in test [6] (Staphylococcus epidermidis) it was 1 µg/mL (≈ 2.15 µM); in test [7] (Enterococcus faecium), 2 µg/mL (≈ 4.3 µM); against Enterococcus faecalis (Enterococcus faecalis) it was 0.25 µg/mL (≈ 0.537 µM); in test [8] (Staphylococcus aureus), 1 µg/mL (≈ 2.15 µM); in the test on Staphylococcus aureus (Staphylococcus aureus), 0.25 µg/mL (≈ 0.537 µM).

In the case of `Cl.O=C1O[C@@H](COc2ccon2)CN1c1ccc(-c2ccc(N3C=NNCC3)nc2)c(F)c1` [Compound 44], the MIC90 with Moraxella catarrhalis (strain 12, M. catarrhalis) was >128 µg/mL; in test [1] (strain 11, E. faecium VanA LR), 16 µg/mL; in [2] (strain 7, E. faecalis VanA LR), 16 µg/mL; in test [3] (strain 9, E. faecium VanA), 2 µg/mL; in [4] (strain 6, E. faecalis VanA), 4 µg/mL; in test [5] (strain 3, S. epidermidis), 1 µg/mL. The MIC90 against Enterococcus faecium (strain 8, E. faecium) is 1 µg/mL; in test [6] (strain 4, S. epidermidis MR) it was 4 µg/mL; in [7] (strain 10, E. faecium VanA LR), 16 µg/mL; against Enterococcus faecalis (strain 5, E. faecalis) it was 4 µg/mL; in [8] (strain 2, S. aureus MR) it was 1 µg/mL; against Staphylococcus aureus (strain 1, S. aureus), 0.5 µg/mL.

In general, MIC90 refers to the lowest concentration that inhibits either 90% of growth or 90% of the strains tested, depending on the study.
